PubChem BioAssay AID1259407 (Chemical Carcinogenesis Research Information System (CCRIS), 2018)
Calls of active or inactive are those of the source. How the calls were made is not given here.

System: CCRIS mutagenicity, Ames/micronucleus/aberration tests
Assay: CCRIS mutagenicity studies
[1] = Test System: AMES SALMONELLA TYPHIMURIUM, Strain/Indicator: TA98, Metabolic Activation: NONE, Method: PREINCUBATION
[2] = Test System: AMES SALMONELLA TYPHIMURIUM, Strain/Indicator: TA98, Metabolic Activation: NONE, Method: STANDARD PLATE
[3] = Test System: AMES SALMONELLA TYPHIMURIUM, Strain/Indicator: TA98, Metabolic Activation: RAT, LIVER, S-9, AROCLOR 1254, Method: STANDARD PLATE
[4] = Test System: AMES SALMONELLA TYPHIMURIUM, Strain/Indicator: TA100, Metabolic Activation: NONE, Method: STANDARD PLATE

Cc1ccc(S(=O)(=O)NC(=O)NN2CCCCCC2)cc1
mutagenic call (Test System: AMES SALMONELLA TYPHIMURIUM, Strain/Indicator: TA97, Metabolic Activation: HAMSTER, LIVER, S-9, AROCLOR 1254 (10%), Method: PREINCUBATION): inactive; negative | mutagenic call (Test System: AMES SALMONELLA TYPHIMURIUM, Strain/Indicator: TA97, Metabolic Activation: HAMSTER, LIVER, S-9, AROCLOR 1254 (30%), Method: PREINCUBATION): inactive; negative | mutagenic call (Test System: AMES SALMONELLA TYPHIMURIUM, Strain/Indicator: TA97, Metabolic Activation: NONE, Method: PREINCUBATION): inactive; negative | mutagenic call (Test System: AMES SALMONELLA TYPHIMURIUM, Strain/Indicator: TA97, Metabolic Activation: RAT, LIVER, AROCLOR 1254 (30%), Method: PREINCUBATION): inactive; negative | mutagenic call (Test System: AMES SALMONELLA TYPHIMURIUM, Strain/Indicator: TA97, Metabolic Activation: RAT, LIVER, S-9, AROCLOR 1254 (10%), Method: PREINCUBATION): inactive; negative | mutagenic call (Test System: AMES SALMONELLA TYPHIMURIUM, Strain/Indicator: TA98, Metabolic Activation: HAMSTER, LIVER, S-9, AROCLOR 1254 (10 OR 30%), Method: PREINCUBATION): inactive; negative | mutagenic call [1]: inactive; negative | mutagenic call (Test System: AMES SALMONELLA TYPHIMURIUM, Strain/Indicator: TA98, Metabolic Activation: RAT, LIVER, S-9, AROCLOR 1254 (10 OR 30%), Method: PREINCUBATION): inactive; negative | mutagenic call (Test System: AMES SALMONELLA TYPHIMURIUM, Strain/Indicator: TA100, Metabolic Activation: HAMSTER, LIVER, S-9, AROCLOR 1254 (10 OR 30%), Method: PREINCUBATION): inactive; negative | mutagenic call (Test System: AMES SALMONELLA TYPHIMURIUM, Strain/Indicator: TA100, Metabolic Activation: NONE, Method: PREINCUBATION): inactive; negative | mutagenic call (Test System: AMES SALMONELLA TYPHIMURIUM, Strain/Indicator: TA100, Metabolic Activation: RAT, LIVER, S-9, AROCLOR 1254 (10%), Method: PREINCUBATION): inactive; negative | mutagenic call (Test System: AMES SALMONELLA TYPHIMURIUM, Strain/Indicator: TA1535, Metabolic Activation: HAMSTER, LIVER, S-9, AROCLOR 1254 (10%), Method: PREINCUBATION): inactive; negative | mutagenic call (Test System: AMES SALMONELLA TYPHIMURIUM, Strain/Indicator: TA1535, Metabolic Activation: HAMSTER, LIVER, S-9, AROCLOR 1254 (30%), Method: PREINCUBATION): active; positive | mutagenic call (Test System: AMES SALMONELLA TYPHIMURIUM, Strain/Indicator: TA1535, Metabolic Activation: NONE, Method: PREINCUBATION): inactive; negative | mutagenic call (Test System: AMES SALMONELLA TYPHIMURIUM, Strain/Indicator: TA1535, Metabolic Activation: RAT, LIVER, S-9, AROCLOR 1254 (10 OR 30%), Method: PREINCUBATION): inactive; negative

C[N+](C)(C)NCCC(=O)[O-]
mutagenic call (Test System: AMES SALMONELLA TYPHIMURIUM, Strain/Indicator: TA98, Metabolic Activation: NONE): inactive; negative | mutagenic call (Test System: AMES SALMONELLA TYPHIMURIUM, Strain/Indicator: TA98, Metabolic Activation: RAT LIVER S-9, AROCLOR 1254): inactive; negative | mutagenic call (Test System: AMES SALMONELLA TYPHIMURIUM, Strain/Indicator: TA100, Metabolic Activation: NONE): inactive; negative | mutagenic call (Test System: AMES SALMONELLA TYPHIMURIUM, Strain/Indicator: TA100, Metabolic Activation: RAT LIVER S-9, AROCLOR 1254): inactive; negative

CCSC(=O)N(CC)C1CCCCC1
mutagenic call (End Point: In vitro chromosomal aberrations, Test System: Human lymphocytes, Metabolic Activation: None): inactive; negative | mutagenic call (End Point: In vitro chromosomal aberrations, Test System: Human lymphocytes, Metabolic Activation: S-9 (No additional details provided in source)): inactive; negative | mutagenic call (End Point: In vivo micronucleus, Test System: Bone marrow, Species: Mouse, Strain/Sex: CD/Female, Route: Oral): inactive; negative | mutagenic call (End Point: In vivo micronucleus, Test System: Bone marrow, Species: Mouse, Strain/Sex: CD/Male, Route: Oral): inactive; negative

O=[N+]([O-])c1cc(-c2ccc(O)c([N+](=O)[O-])c2)ccc1O
mutagenic call [1]: inactive; negative

COc1cc(O)c2c(=O)oc3cc(O)cc(C)c3c2c1
mutagenic call [2]: inactive; negative | mutagenic call (Test System: AMES SALMONELLA TYPHIMURIUM, Strain/Indicator: TA98, Metabolic Activation: RAT LIVER S-9, AROCLOR 1254, Method: STANDARD PLATE): inactive; negative | mutagenic call [3]: inactive; negative | mutagenic call [4]: inactive; negative | mutagenic call (Test System: AMES SALMONELLA TYPHIMURIUM, Strain/Indicator: TA100, Metabolic Activation: RAT LIVER S-9, AROCLOR 1254, Method: STANDARD PLATE): inactive; negative | mutagenic call (Test System: AMES SALMONELLA TYPHIMURIUM, Strain/Indicator: TA100, Metabolic Activation: RAT, LIVER, S-9, AROCLOR 1254, Method: STANDARD PLATE): inactive; negative | mutagenic call (Test System: Ames Salmonella typhimurium, Strain/Indicator: TA97, Metabolic Activation: None, Method: Standard plate): inactive; negative. nitrosation did not increase mutagenicity | mutagenic call (Test System: Ames Salmonella typhimurium, Strain/Indicator: TA97, Metabolic Activation: Rat, Liver, S-9, Aroclor 1254 (10%), Method: Standard plate): inactive; negative. nitrosation did not increase mutagenicity | mutagenic call (Test System: Ames Salmonella typhimurium, Strain/Indicator: TA102, Metabolic Activation: None, Method: Standard plate): inactive; negative. nitrosation did not increase mutagenicity | mutagenic call (Test System: Ames Salmonella typhimurium, Strain/Indicator: TA102, Metabolic Activation: Rat, Liver, S-9, Aroclor 1254 (10%), Method: Standard plate): inactive; negative. nitrosation did not increase mutagenicity | mutagenic call (Test System: Ames Salmonella typhimurium, Strain/Indicator: TA104, Metabolic Activation: None, Method: Standard plate): inactive; negative. nitrosation did not increase mutagenicity | mutagenic call (Test System: Ames Salmonella typhimurium, Strain/Indicator: TA104, Metabolic Activation: Rat, Liver, S-9, Aroclor 1254 (10%), Method: Standard plate): inactive; negative. nitrosation did not increase mutagenicity | mutagenic call (Test System: E. COLI, Strain/Indicator: ND-160, Metabolic Activation: NONE, Method: STANDARD PLATE): active; positive

CC(=O)[C@]1(O)Cc2c(O)c3c(c(O)c2[C@@H](O[C@H]2C[C@H](N)[C@H](O)[C@H](C)O2)C1)C(=O)c1c(O)cccc1C3=O
mutagenic call (Test System: AMES SALMONELLA TYPHIMURIUM, Strain/Indicator: GW257, Metabolic Activation: NONE, Method: STANDARD PLATE): active; positive | mutagenic call (Test System: AMES SALMONELLA TYPHIMURIUM, Strain/Indicator: TA97, Metabolic Activation: NONE, Method: STANDARD PLATE): active; positive | mutagenic call [1]: active; positive | mutagenic call [2]: active; positive | mutagenic call [3]: active; positive | mutagenic call [4]: active; positive | mutagenic call (Test System: AMES SALMONELLA TYPHIMURIUM, Strain/Indicator: TA104, Metabolic Activation: NONE, Method: STANDARD PLATE): inactive; negative | mutagenic call (Test System: AMES SALMONELLA TYPHIMURIUM, Strain/Indicator: TA1538, Metabolic Activation: NONE, Method: STANDARD PLATE): active; positive | mutagenic call (Test System: AMES SALMONELLA TYPHIMURIUM, Strain/Indicator: TA2637, Metabolic Activation: NONE, Method: STANDARD PLATE): active; positive
